Results reported in patent US8247351B2, “Insecticidal compositions having improved effect” (Bayer Cropscience AG, priority 2005, dated 2012).

Experiments:
Assay type in all cases: in vivo
[1] = test system: Myzus persicae; experiment: Myzus persicae test, Example D (sprayed to runoff, ammonium salt boosting)
Method: (§1) Solvent: 7 parts by weight dimethylformamide
(§2) Emulsifier: 2 parts by weight alkylaryl polyglycol ether
(§3) An appropriate preparation of active ingredient is prepared by mixing 1 part by weight of active ingredient with the stated amounts of solvent and emulsifier and diluting the concentrate with water to the desired concentration. For the application with ammonium salts or phosphonium salts, these salts are added in a concentration of 1000 ppm to the spray liquor.
Paprika plants (Capsicum annum) heavily infested by the green peach aphid (Myzus persicae) are treated by being. sprayed to runoff with the preparation of active ingredient at the desired concentration. After the desired time the destruction in % is ascertained. 100% means that all of the animals have been killed; 0% means that no animals have been killed.

[2] = test system: Myzus persicae; experiment: Myzus persicae test, Example F (sprayed to runoff, ammonium salt plus penetrant)
Method: as §1, §2
An appropriate preparation of active ingredient is prepared by mixing 1 part by weight of active ingredient with the stated amounts of solvent and emulsifier and diluting the concentrate with water to the desired concentration. For the application with ammonium salts or phosphonium salts and penetrant (rapeseed oil methyl ester 500 EW), they are each added in a concentration of 1000 ppm to the spray liquor.
After the desired time the destruction in % is ascertained. 100% means that all of the animals have been killed; 0% means that no animals have been killed.

[3] = test system: Aphis gossypii; experiment: Aphis gossypii test, Example G (sprayed to runoff, ammonium salt plus penetrant)
Method: as §1, §2
An appropriate preparation of active ingredient is prepared by mixing 1 part by weight of active ingredient with the stated amounts of solvent and emulsifier and diluting the concentrate with emulsifier-containing water to the desired concentration. For the application with ammonium salts or phosphonium salts and penetrants (rapeseed oil methyl esters 500 EW), they are each added in a concentration of 1000 ppm a.i. to the spray liquor.
(§4) Cotton plants (Gossypium hirsutum) heavily infested by the cotton aphid (Aphis gossypii) are sprayed to runoff with the preparation of active ingredient at the desired concentration.
(§5) After the desired time the destruction in % is ascertained. 100% means that all of the aphids have been killed; 0% means than no aphids were killed.

[4] = test system: Aphis gossypii; experiment: Aphis gossypii test, Example E (sprayed to runoff, ammonium salt boosting)
Method: as §1, §2
as §3, with “concentrate with emulsifier-containing water to” for “concentrate with water to”
as §4, §5

[5] = 0.8 ppm active ingredient, +AS (1000 ppm)
[6] = 0.8 ppm active ingredient, no additive
[7] = 4 ppm active ingredient, +AS (1000 ppm)
[8] = 4 ppm active ingredient, no additive
[9] = 0.8 ppm active ingredient, +RME (1000 ppm)
[10] = 0.8 ppm active ingredient, +RME +AS (each 1000 ppm)
[11] = 20 ppm active ingredient, +AS (1000 ppm)
[12] = 20 ppm active ingredient, no additive
[13] = 20 ppm active ingredient, +RME (1000 ppm)
[14] = 20 ppm active ingredient, +RME +AS (each 1000 ppm)
[15] = 4 ppm active ingredient, +RME (1000 ppm)
[16] = 4 ppm active ingredient, +RME +AS (each 1000 ppm)

| SMILES | Degree of destruction/% after 6 days [1, 7] [%] | Degree of destruction/% after 6 days [1, 8] [%] | Degree of destruction/% after 6 days [2, 5] [%] | Degree of destruction/% after 6 days [2, 9] [%] | Degree of destruction/% after 6 days [2, 10] [%] | Degree of destruction/% after 6 days [2, 6] [%] | Degree of destruction/% after 6 days [3, 5] [%] | Degree of destruction/% after 6 days [3, 9] [%] | Degree of destruction/% after 6 days [3, 10] [%] | Degree of destruction/% after 6 days [3, 6] [%] | Degree of destruction/% after 6 days [4, 5] [%] | Degree of destruction/% after 6 days [4, 6] [%] | Degree of destruction/% after 6 days [4, 7] [%] | Degree of destruction/% after 6 days [4, 8] [%] | Degree of destruction/% after 6 days [1, 11] [%] | Degree of destruction/% after 6 days [1, 12] [%] | Degree of destruction/% after 6 days [2, 11] [%] | Degree of destruction/% after 6 days [2, 13] [%] | Degree of destruction/% after 6 days [2, 14] [%] | Degree of destruction/% after 6 days [2, 12] [%] | other results |
| --- | --- | --- | --- | --- | --- | --- | --- | --- | --- | --- | --- | --- | --- | --- | --- | --- | --- | --- | --- | --- | --- |
| COc1cc(C)cc(C)c1C1=C(O)C2(CCC(OC)CC2)OC1=O (centres unmarked) [Example I-2-a-2] | 90 | 65 | 25 | 15 | 99 | 0 | 70 | 50 | 95 | 30 | 70 | 30 | 95 | 85 |  |  |  |  |  |  | Degree of destruction/% after 6 days [1, 5]: 25%; Degree of destruction/% after 6 days [1, 6]: 0% |
| Cc1ccc(-c2ccc(Cl)cc2)cc1C1=C(O)C(C)(C)OC1=O [Example I-2-a-3] |  |  |  |  |  |  |  |  |  |  |  |  |  |  | 15 | 0 | 15 | 35 | 80 | 0 | Degree of destruction/% after 6 days [3, 7]: 5%; Degree of destruction/% after 6 days [3, 15]: 0%; Degree of destruction/% after 6 days [3, 16]: 15%; Degree of destruction/% after 6 days [3, 8]: 0%; Degree of destruction/% after 6 days [3, 11]: 30%; Degree of destruction/% after 6 days [3, 13]: 0%; Degree of destruction/% after 6 days [3, 14]: 65%; Degree of destruction/% after 6 days [3, 12]: 0%; Degree of destruction/% after 6 days [4, 11]: 30%; Degree of destruction/% after 6 days [4, 12]: 0% |
| COc1cc(C)cc(Cl)c1C1=C(O)C2(CCC(OC)CC2)OC1=O (centres unmarked) [Example I-2-a-4] |  |  |  |  |  |  | 45 | 45 | 70 | 10 | 45 | 10 | 90 | 70 | 80 | 60 |  |  |  |  | Degree of destruction/% after 6 days [2, 7]: 0%; Degree of destruction/% after 6 days [2, 15]: 0%; Degree of destruction/% after 6 days [2, 16]: 70%; Degree of destruction/% after 6 days [2, 8]: 0% |
| COc1cc(C)cc(C)c1-c1c(O)c(C)c(-c2ccccn2)oc1=O [Example I-4-a-1] | 45 | 0 | 5 | 0 | 40 | 0 | 15 | 0 | 45 | 0 |  |  | 40 | 0 | 95 | 75 |  |  |  |  |  |
| Cc1cc(Br)cc(C)c1-c1c(O)c(C)c(-c2ccccn2)oc1=O [Example I-4-a-3] | 70 | 5 | 5 | 20 | 98 | 0 | 40 | 0 | 80 | 0 | 40 | 0 | 70 | 25 | 85 | 40 |  |  |  |  |  |
| Cc1ccc(-c2ccc(Cl)cc2)cc1C1=C(O)C(C)(C)C(C)(C)OC1=O [Example I-10-a-1] |  |  |  |  |  |  |  |  |  |  |  |  |  |  | 25 | 0 | 25 | 65 | 99 | 0 | Degree of destruction/% after 6 days [2, 7]: 5%; Degree of destruction/% after 6 days [2, 15]: 20%; Degree of destruction/% after 6 days [2, 16]: 55%; Degree of destruction/% after 6 days [2, 8]: 0%; Degree of destruction/% after 6 days [3, 11]: 45%; Degree of destruction/% after 6 days [3, 13]: 45%; Degree of destruction/% after 6 days [3, 14]: 70%; Degree of destruction/% after 6 days [3, 12]: 0%; Degree of destruction/% after 6 days [4, 11]: 45%; Degree of destruction/% after 6 days [4, 12]: 0% |
